# Like-named read-outs stand apart in the source and are kept apart here.
# Legend:
# [1] = system: human subjects; conditions: in vivo
# From the text: An additional 2 or 3 additional cases of adverse effects. Of these subjects, 2 had keratitis following the 1st in-office application and another patient deteriorate following the 2nd in-office application although the subject kept on another dose or two at home before coming with pain to be examined (a typical scenario when keratitis evolves).
# [2] = in vivo; cited from earlier work
# [3] = system: seborrheic blepharitis; conditions: cited from earlier work
# [4] = system: rabbits; conditions: dose about 4 mg, concentration up to 2.5 wt. %, ointment over the eyelid margin
# [5] = system: human subjects
# From the text: In a clinical study three different concentrations were used; 0.1 wt. %, (10 subjects) 0.5 wt. % (12 subjects) and 1 wt. % (26 subjects).
# [6] = system: animals; conditions: in vivo; cited from earlier work
# [7] = system: study patients; conditions: in vivo
# Protocol: In a first study patients were instructed to dose in both the evening, between visits, and in the daytime during regular scheduled clinic visits as part of the study protocol. Study patients received a 2-week run-in on a placebo which was administered twice weekly for a period of two weeks.
# Adverse events comprise a feeling of grittiness, foreign body feeling, stinging, blurry vision, redness, tired eyes, water eyes, irritation, lid abnormalities, burning, corneal abrasion, photophobia, staining, or dry eye disorder (DED).
# [8] = system: human subject
# Protocol: In most instances, the treatment is applied on a biweekly basis, however some patients move to daily application based on prespecified protocol criteria. Because the ointment-based composition is known to mix with tear fluid and cause blurry vision, individuals in this study are advised to apply the treatment prior to bed so as to avoid risks associated with reduced vision acuity. […] The in-office applications are conducted at specific, pre-determined time points. In these instances, the treatment is not applied before bed but rather is performed during daylight hours.
# [9] = system: meibomian gland disorder (MGD) patients; conditions: twice a week, 3 month time point
# Protocol: The drug was applied twice a week and final evaluation was done at the 3 month time point in which the primary outcome of Meibomian Gland Score (MGS) was assessed.
substance,measurement,setting,value
selenium disulfide [SeS2],additional cases of adverse effects,[1],2-3 cases
same,subjects with keratitis following the 1st in-office application,[1],2 subjects
same,contact dermatitis,[2],can produce contact dermatitis
same,contact or photo-contact dermatitis in tinea versicolor treatment,[2],None of the investigators encountered a single case
same,hair loss after shampooing,[2],diffuse hair loss
same,skin reaction after shampoo applied three consecutive nights,[2],developed circumscribed eczematous plaques
same,treatment of seborrheic blepharitis,[3]; SeS2 0.5%,effective
same,adverse events following topical ocular use,"[3]; human, in vivo",superficial punctate keratitis and conjunctivitis
same,tolerability,[4],well tolerated
same,adverse events during the first month,"[5]; human, in vivo",no adverse events
same,initiation of pain after the application,"[5]; human, in vivo",6 to 20 h
same,"keratitis after in-office, daytime applications","[5]; human, in vivo",no development of keratitis
same,keratitis in bedtime applications,"[5]; human, in vivo",without a single occurrence of keratitis
same,subjects who developed keratitis or keratitis related symptoms,"[5]; human, in vivo",four
same,time from in-office morning application to significant pain,"[5]; human, in vivo",About 7 hours
same,"total OSDI, VAS and SPEED","[5]; one patient, 1 wt. %, first month, twice weekly at home before bedtime",significant improvement
same,safe concentration for use in humans,[6],0.5%
same,reduction in the incidence of ocular adverse events,[7],75%
same,reduction of discontinuations from adverse events (DC for AE),[7],at least 50%
same,reduction of rates of ocular adverse events (ocular AE),[7],at least 50%
same,keratitis,[8]; 0.1 wt. % concentration,Keratitis is not observed
same,keratitis,[8]; 0.5 wt. % concentration,Keratitis is not observed
same,patients noting symptoms of keratitis,"[8]; 1 wt. % cohort, following in-office assessment",four
same,bedtime applications resulting in keratitis,[8]; 400 or more bedtime applications,none
same,"health outcomes by OSDI, VAS and SPEED","[8]; at least one patient, one month of treatment, 1 wt. %",improved health outcomes
same,time from in-office assessment to significant pain near the treated area,"[8]; one patient, 1 wt. %",≤ 7 h
same,average change from baseline in Meibomian Gland Score (MGS),[9]; 9 patients using finger,10 (+/− 8.2)
same,average change from baseline in Meibomian Gland Score (MGS),[9]; 13 patients using applicator,2.3 (+/− 4.4)

# — patent US20220409657A1, “INSTRUCTIONS FOR COMPOSITION AND SENSITIVITY” (Azura Ophthalmics Ltd., priority 2020, published 2022)
